In patent US5157019A, “Serine protease inhibitors” (Monsanto Company, priority 1991, dated 1992):
Ends that are not written are not given here.

Key:
Cathepsin G = target: T1, Cathepsin G (Homo sapiens, UniProt P08311); test: Cathepsin G assay (Suc-Ala-Ala-Pro-Phe-pNA, 410 nm); type: biochemical
T1 construct: purchased Elastin Products Company (EPC) SG-45
T1 sequence (P08311 21-255): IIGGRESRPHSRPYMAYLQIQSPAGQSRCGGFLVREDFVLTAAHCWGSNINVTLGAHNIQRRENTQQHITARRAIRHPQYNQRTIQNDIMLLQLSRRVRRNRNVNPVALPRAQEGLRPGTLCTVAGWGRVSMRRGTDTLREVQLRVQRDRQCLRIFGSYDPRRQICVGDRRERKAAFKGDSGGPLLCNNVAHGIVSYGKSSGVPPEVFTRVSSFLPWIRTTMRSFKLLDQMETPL
Protocol: Reference: Elastin Products Company (EPC) technical data sheet, cathepsin G, No. SG-45.
Method: Spectrophotometric rate determination
A) Buffer; 0.1M Tris, pH 7.5 at 25° C.
B) Substrate; 60 mM Suc-Ala-Ala-Pro-Phe-pNA obtained from Sigma Chemical Company. Solution prepared by dissolving 50 mg substrate in 1.3 ml of 1-methyl-2-pyrrolidinone. Stored at 5° C.
C) Peptide Inhibitors; 200 μM HCl salt. Depending on peptide solubility, dissolved in buffer or DMSO and then buffer added for a final concentration of 10% DMSO.
D) Enzyme; Cathepsin G, EPC SG-45, lot 85117 used for all assays, 0.0077 mg protein per mg solid determined by supplier by Bradford method. Enzyme was dissolved in buffer at a concentration of approx. 5 mg/ml solid. Solution stored on ice, used within 2 hours.
Pipetted the following into semi-micro quartz cuvettes: 0.3 ml buffer, 0.15 ml peptide solution and 0.5 ml of substrate solution. Equilibrate for 5 min. at 25° C., then add 0.05 ml of enzyme solution and monitor the release of pNA spectrophotometrically at 410 nm for at least 3 minutes. The controls contain either 0.45 ml of buffer or 20% DMSO in buffer (for a final concentration of 10% DMSO).
The rate (O.D./min) is obtained as an average over 3 minutes. [formula]

Factor D = target: T2, Factor D (Homo sapiens, UniProt P00746); test: Factor D assay by inhibition of fluid phase Factor B activation; type: biochemical; details: Table X; μM concentration at which protease was inhibited 50%; read-out: IC50 D
T2 construct: prepared from pooled human plasma; from tissue; host or cells: pooled human plasma
T2 sequence (P00746 26-253): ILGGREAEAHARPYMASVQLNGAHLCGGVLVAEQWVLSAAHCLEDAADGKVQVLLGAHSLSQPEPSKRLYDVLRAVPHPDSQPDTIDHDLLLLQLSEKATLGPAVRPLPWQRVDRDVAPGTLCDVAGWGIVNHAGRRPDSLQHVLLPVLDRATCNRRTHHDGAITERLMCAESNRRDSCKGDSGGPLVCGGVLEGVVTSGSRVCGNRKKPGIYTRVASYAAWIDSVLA
Protocol: (§1) Highly purified C3, C4, Factor D, Factor B, and C1s were prepared from pooled human plasma. Factors B and C4 were radiolabeled by periodate oxidation of sialic acid residues, followed by reduction with tritiated sodium borohydride. In a representative experiment, a solution of 1.2 mg of factor B in 1.8 ml of PBS was treated with 70 μl of 0.1M NaIO4. After 10 min incubation on ice, excess reagent was removed by filtration over "SEPHADEX®" which is a matrix for gel chromatography (1.0 cm×20 cm). To the protein pool was added 60 μl of NaB[^3 H]4 solution and incubated for 30 min on ice. Labeled protein was separated from excess reagent by desalting or dialysis. Human C4 was radiolabeled in the same manner. Radiolabeled proteins were stored at -70° C. in PBS. The specific radioactivity of ^3 H factor B was about 10,000 CPM/μg and that of ^3 H-C4 was 5,000 CPM/μg.
The effect of the peptides on Factor D-dependent cleavage of factor B was studied by incubating 3.5 μg of Factor B, 1.5 μg of C3(H2 O) and 0.2 μl of Factor D at 37° C. for 60 min in Mg-PBS containing different concentrations of inhibitor. Uncleaved Factor B and its fragments, Ba and Bb, were first separated by SDS-PAGE and analyzed as described above. The percent cleavage of the reaction was calculated as follows: [formula]
B=radioactivity (CPM) of uncleaved factor B
Bb=radioactivity (CPM) of fragment Bb
Ba=radioactivity (CPM) of fragment Ba
(§2) Electrophoresis was carried out under reducing conditions in the Laemmli system using slab gel of 8% polyacrylamide. The gels were stained and destained (Fairbanks et al. Biochemistry (1971) 10:2606).
(§3) The percent inhibition of the reaction was calculated according to the following relationship: [formula]
(§4) A: % cleavage without inhibitor
(§5) B: % cleavage with inhibitor
(§6) The concentration inducing 50% inhibition was obtained by plotting the percent inhibition on a probability graph (National Blank Book Co., No. 12-083) on the ordinate and the log of the inhibitor concentration on the abscissa. From this graph, a 50% inhibition concentration IC50 was obtained and this value was employed to express the activity.

Thrombin = Thrombin (Homo sapiens, UniProt P00734); test: Coagulation inhibition assay, thrombin (fibrinogen clotting end point); type: biochemical; details: 40 μM peptide
Protocol: Inhibitory activity of subject peptides toward thrombin and Factor Xa were done in the following manner. Mix 100 μL Thrombin (3.125 units/ml, 1.125 μg/ml) in TAB with […] Peptide in TAB and incubate for 1 minute at 37° C. Add 50 μL Fibrinogen (2 mg/ml)and measure clotting end point (in seconds) in a Fibrometer (BBL) TAB=Thrombin Assay Buffer: 0.15M NaCl, 6.6 gm/L PEG-6000, 0.01M Imidazole, 0.01 CaCl2, pH 7.4

C1s = target: T3, C1s (Homo sapiens, UniProt P09871); test: C1s assay by inhibition of fluid phase C4 activation; type: biochemical; details: Table X; μM concentration at which protease was inhibited 50%; read-out: IC50 C1S
T3 construct: prepared from pooled human plasma; from tissue; host or cells: pooled human plasma
T3 sequence (P09871 16-688): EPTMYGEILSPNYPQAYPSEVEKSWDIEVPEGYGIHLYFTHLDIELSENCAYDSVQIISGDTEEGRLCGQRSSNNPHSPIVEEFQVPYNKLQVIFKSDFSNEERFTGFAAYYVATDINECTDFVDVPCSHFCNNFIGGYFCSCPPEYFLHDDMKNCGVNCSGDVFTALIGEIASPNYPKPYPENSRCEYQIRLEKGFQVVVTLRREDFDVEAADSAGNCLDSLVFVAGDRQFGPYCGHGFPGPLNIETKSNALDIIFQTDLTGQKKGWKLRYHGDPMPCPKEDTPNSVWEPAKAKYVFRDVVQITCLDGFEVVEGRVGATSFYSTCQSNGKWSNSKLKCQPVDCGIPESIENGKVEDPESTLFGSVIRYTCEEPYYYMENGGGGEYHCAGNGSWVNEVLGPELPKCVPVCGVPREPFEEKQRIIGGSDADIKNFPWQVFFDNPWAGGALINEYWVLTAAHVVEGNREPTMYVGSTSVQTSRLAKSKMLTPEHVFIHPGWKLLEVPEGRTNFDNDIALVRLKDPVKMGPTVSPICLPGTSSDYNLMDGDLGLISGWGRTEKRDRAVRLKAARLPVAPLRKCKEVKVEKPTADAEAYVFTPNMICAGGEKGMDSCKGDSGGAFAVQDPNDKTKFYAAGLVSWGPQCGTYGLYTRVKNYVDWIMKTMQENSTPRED
Protocol: as §1
The cleavage of C4 was studied by incubating 10 μg of tritiated C4 with 3-5 ng of C1s at 37° C. for 30 min in 100 μl of PBS (pH 7.10) containing different concentrations of inhibitor. The reaction was stopped by the addition of 2-mercaptoethanol. The extent of cleavage was analyzed by SDS-polyacrylamide gel electrophoresis. The stained bands corresponding to C4α and C4α' were cut out and sliced. The radioactivity of the fragments was measured by liquid scintillation counting. The percent cleavage of the reaction was calculated as follows: [formula]
as §2, §3, §4, §5, §6

complement activation = test: Reverse passive arthus reaction (RPAR), histopathology of injection sites; type: in vivo, guinea pigs; design: key: 0 indicating no acute inflamation; 1 indication minimal acute inflammation; 2 indicating mild acute inflammation; 3 indicating moderate acute inflammation; details: for Degree of inflammation, mean score, protease inhibitor only: guinea pig, intradermal injection of peptide without antibody
Protocol: These exemplary peptide inhibitors (peptides 13, 7 and 27) were assayed for in vivo activity in inhibiting complement activation using the reverse passive arthus reaction (RPAR). RPAR is a model of complement-mediated damage due to activation via interaction with antigen/antibody complexes. Female guinea pigs (400 gm) were pretreated intracardially with bovine serum albumin and Evans blue dye. Ninety minutes later they received bilateral intradermal injections of peptide inhibitor or control material in the thoracolumbar region. Injection sites were excised postmortem and fixed in 10% buffered formalin for pathological evaluation. The peptides were administered to obtain an initial level of […] in the circulatory system.
The histopathological results are outlined below. The degree of inflammation was scored as follows: 0 indicating no acute inflamation; 1 indication minimal acute inflammation; 2 indicating mild acute inflammation; and 3 indicating moderate acute inflammation.

[1] = tested on: alternative pathway of complement activation; test: Hemolytic assay, alternative pathway (lysis of ER cells by normal human serum); type: cell-based; details: 25 μM peptide
Method: (§7) METHOD: Complement activation of the classical and alternative pathways is measured by lysis of EA and ER cells (respectively) after incubation with serum. Hemolysis is quantitated spectrophotometrically by the absorbance of hemoglobin at 415 nm.
ER cells: Rabbit erythrocytes stored at 10^9 in Alsevers buffer, 0.01% sodium azide.^2
(§8) h NHS: Normal human serum incubated at 56° C. for 1 hour to inactivate complement components.
(§9) B) Wash EA cell (classical pathway) and ER cell (alternative pathway) suspensions with at least an equal volume of PBS^++ (Phosphate buffered saline, with 0.15 mM Ca^++ and 0.5 mM Mg^++). Spin at 2000 rpm for 5 minutes, decant supernatant and resuspend cells. Wash cells twice or until supernatant is obviously clear of any lysed cellular debris.
C) After the final wash, cells should be resuspended in an appropriate volume of PBS^++ so there are approximately 5×10^8 cells/ml. Dilute cell suspension 1:30 with distilled water and determine the absorbance at 541 nm spectrophotometrically. An adsorbance of 0.175 indicates 5×10^8 cells/ml. Adjust the volume of the cell suspension accordingly with PBS^++ to get a final concentration of 2.5×10^8 cells/ml. […]
(§10) G) Read absorbance (Abs) of the supernatant at 415 nm to determine cell lysis. […]
(§11) c) Dilute NHS and h NHS initially so that 100 ul of that dilution in a total of 250 μl will equal the final dilution calculated in the titer assay. […]

[2] = tested on: classical pathway of complement activation; test: Hemolytic assay, classical pathway (lysis of EA cells by normal human serum); type: cell-based; details: 25 μM peptide
Method: as §7
EA cells: Sheep erythrocyte-antibody conjugates stored at 10^9 cells/ml in DGVB (Veronal buffer plus Ca^++ and Mg,^++, 2.5% w/v dextrose and 0.05% w/v gelatin, 0.01% sodium azide)^1
as §8, §9
C) After the final wash, cells should be resuspended in an appropriate volume of PBS^++ so there are approximately 5×10^8 cells/ml. Dilute cell suspension 1:30 with distilled water and determine the absorbance at 541 nm spectrophotometrically. An adsorbance of 0.175 indicates 5×10^8 cells/ml. […]
as §10, §11

HUMAN SPUTUM ELASTASE = target: T4, HUMAN SPUTUM ELASTASE (Homo sapiens, UniProt P08246); test: Elastase assay (MeO-Suc-Ala-Pro-Val-pNA); type: biochemical; details: 200 μM peptide
T4 construct: HUMAN SPUTUM ELASTASE; purchased Elastin Products Company SE563; host or cells: human sputum (from the product name)
T4 sequence (P08246 30-267): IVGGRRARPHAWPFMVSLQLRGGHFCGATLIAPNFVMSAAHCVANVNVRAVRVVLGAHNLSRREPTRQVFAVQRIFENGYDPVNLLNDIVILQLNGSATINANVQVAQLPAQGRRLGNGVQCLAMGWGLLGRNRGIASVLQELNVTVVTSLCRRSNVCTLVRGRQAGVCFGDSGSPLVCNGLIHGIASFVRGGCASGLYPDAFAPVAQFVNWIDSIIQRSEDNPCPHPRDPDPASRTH
Protocol: Enzyme used is "HUMAN SPUTUM ELASTASE®" which is an enzyme which is the target protease for α1 antitrypsin from Elastin Products Company, Catalog No. SE563, lot 85071, 875 units/mg as determined by supplier with N-Suc-Ala-Ala-Ala-pNA; prepared at 0.2 mg/mL in 0.1M Tris·HCl, pH 8.8 at 37 degrees C. An amount of enzyme is used to give approximately 0.1 change in Absorbance/min; which in this assay was 1 μg.
The substrate is MeO-Suc-Ala-Pro-Val-pNA, Sigma Catalog No. M-4765. About 50 mg of the substrate is dissolved in 1 ml of 1-methyl-2-pyrrolidinone and diluted to 33 mls. with 0.1M Tris-HCl, pH 7.5, containing 0.5M NaCl, and 0.01 wt % sodium azide.
Peptide solutions are prepared at 500 μM, using 1.5% of the final volume of DMSO first and diluting with distilled water (DW) or 0.1M Tris.HCl, pH 8.8 at 37 degrees C. [formula]

Plasmin = Plasmin (Homo sapiens, UniProt P00747); test: Plasmin assay (S2251); type: biochemical; details: 200 μM peptide
Sequence of Plasmin (P00747 581-810 limits assumed): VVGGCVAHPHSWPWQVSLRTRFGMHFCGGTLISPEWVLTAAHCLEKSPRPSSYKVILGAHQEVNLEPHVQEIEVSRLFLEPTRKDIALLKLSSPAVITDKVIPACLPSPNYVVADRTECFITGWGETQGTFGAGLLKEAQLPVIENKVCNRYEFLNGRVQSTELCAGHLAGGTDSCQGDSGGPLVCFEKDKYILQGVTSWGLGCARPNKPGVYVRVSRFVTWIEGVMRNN
Sequence of Plasmin (P00747 97-580 partner limits assumed): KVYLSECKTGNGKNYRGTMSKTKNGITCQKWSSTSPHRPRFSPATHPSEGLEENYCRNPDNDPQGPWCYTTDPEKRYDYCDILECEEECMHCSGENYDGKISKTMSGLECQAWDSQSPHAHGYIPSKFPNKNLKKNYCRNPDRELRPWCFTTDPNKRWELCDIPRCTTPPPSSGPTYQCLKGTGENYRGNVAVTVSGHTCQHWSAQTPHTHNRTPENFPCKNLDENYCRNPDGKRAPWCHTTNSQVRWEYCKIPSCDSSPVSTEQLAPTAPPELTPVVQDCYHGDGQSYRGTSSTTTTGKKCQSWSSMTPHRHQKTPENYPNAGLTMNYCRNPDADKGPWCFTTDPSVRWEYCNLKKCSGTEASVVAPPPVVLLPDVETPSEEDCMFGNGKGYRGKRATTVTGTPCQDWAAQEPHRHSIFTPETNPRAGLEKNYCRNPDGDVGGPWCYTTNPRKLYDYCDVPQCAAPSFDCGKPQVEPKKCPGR
Protocol: Substrate H-D-Val-Leu-Lys-pNA·HCl (S2251, Kabi), 10 mM in deionized water; may be frozen for future use.
Buffer 50 mM Tris·HCl, pH 7.4 containing 0.01% Tween 80
Inhibitor 400 μM in deionized water
Enzyme Plasmin; 0.5 U/ml in buffer (Cat #P-4895, Sigma Chemical Co., St. Louis, Mo.)
Mix 220 μL buffer, 200 μL deionized water (control) or inhibitor solution and 40 μL substrate. Incubate for 2 min at 37° C. Transfer 230 μL to a microcuvette, add 40 μL of enzyme, mix, and measure rate spectrophotometrically at 405 nm for about 5 min. Inhibition (%) is calculated in the same manner as in previous assays.

[3] = 200 μM peptide (head of Table IX)

Substance	inhibition at 200 µM (Cathepsin G; [3])	IC50 (Factor D)	inhibition at 40 µM (Thrombin)	IC50 (C1s)	Degree of inflammation, mean score, protease inhibitor only (complement activation)	% inhibition, alternative pathway (AP) [1]	% inhibition, classical pathway (CP) [2]	Degree of inflammation, mean score, antibody plus protease inhibitor (complement activation; guinea pig RPAR, intradermal anti-bovine serum albumin plus peptide, antibody only mean score 3)	Cathepsin G % inhibition (Cathepsin G; 100 μM peptide (Tables VI, VIII))	Cathepsin G Inhibition (Cathepsin G; [3])	Elastase Inhibition (HUMAN SPUTUM ELASTASE)	Plasmin % inhibition (Plasmin)
AGRSLNPNRVTFKANRPFLVFI [Peptide 7]	28%	145 µM	50%	39 µM	0							
GVRGPRVVERVTFKANRPFLVFI-OH [Peptide 13]					0	61%	75%	1				
LRYNKPFILVLFETPGNSLVFLGRISNPATK [Peptide 23]									0%	0%	0%	67%
